Columns and labels:
thrombin = biological target: T1, thrombin (Bos taurus, UniProt P00735); assay: fibrinogen coagulation time (thrombin added to bovine fibrinogen solution); assay type: biochemical; conditions: thrombin 5 units/ml, borate saline buffer pH 7.4, 25° C, normal coagulation time 50-55 seconds prolonged to 100-110 seconds
T1 construct: purchased Mochida Pharmaceutical Co., Ltd
Experimental: The measurement of the fibrinogen coagulation time was conducted as follows:
Immediately after mixing, the reaction mixture was transferred from the ice bath to a bath maintained at 25° C. Coagulation times were taken as the period between the time of transference to the 25° C bath and the time of the first appearance of fibrin threads.
The term "concentration required to prolong the coagulation time by a factor of two" is the concentration of an active ingredient required to prolong the normal coagulation time 50-55 seconds to 100-110 seconds.

mice = assay: acute toxicity (LD50), intraperitoneal administration in mice; assay type: in vivo; conditions: mice (male, 20 g)
Source text: Representative LD50 values, for example, for N^2 -(6,7-dimethoxy-2-naphthylsulfonyl)-L-arginyl-N-butylalanine and N^2 -(4,6-dimethoxy-2-naphthylsulfonyl)-L-arginyl-N-cyclohexylmethylalanine are above 1,500 milligrams per kilogram each.

Row | Concentration required to prolong the coagulation time by a factor of two (thrombin) [µM] | Structure (SMILES) | acute toxicity values (LD50) (mice)
1 | 5 | COCCN(C(=O)[C@H](CCCNC(=N)N)NS(=O)(=O)c1ccc2cc(OC)c(OC)cc2c1)[C@@H](C)C(=O)O [compound 15, N^2-(6,7-dimethoxy-2-naphthylsulfonyl)-L-arginyl-N-(2-methoxyethyl)alanine] | 
2 | 15 | CCC[C@H](NC(=O)[C@H](CCCNC(=N)N)NS(=O)(=O)c1ccc2cc(OC)c(OC)cc2c1)C(=O)O [compound 21, N^2-(6,7-dimethoxy-2-naphthylsulfonyl)-L-arginylnorvaline] | 
3 | 2.5 | COc1cc2ccc(S(=O)(=O)N[C@@H](CCCNC(=N)N)C(=O)N(Cc3ccccc3)[C@@H](C)C(=O)O)cc2cc1OC [compound 6, N^2-(6,7-dimethoxy-2-naphthylsulfonyl)-L-arginyl-N-benzylalanine] | 
4 | 2 | COc1cc2ccc(S(=O)(=O)N[C@@H](CCCNC(=N)N)C(=O)N(C)[C@@H](Cc3ccccc3)C(=O)O)cc2cc1OC [compound 18, N^2-(6,7-dimethoxy-2-naphthylsulfonyl)-L-arginyl-N-methylphenylalanine] | 
5 | 2.5 | COc1ccc2ccc(S(=O)(=O)N[C@@H](CCCNC(=N)N)C(=O)N(C)[C@@H](Cc3ccccc3)C(=O)O)cc2c1 [compound 20, N^2-(7-methoxy-2-naphthylsulfonyl)-L-arginyl-N-methyl-phenylalanine] | 
6 |  | CCCCN(C(=O)[C@H](CCCNC(=N)N)NS(=O)(=O)c1ccc2cc(OC)c(OC)cc2c1)[C@@H](C)C(=O)O [compound 2, N^2-(6,7-dimethoxy-2-naphthylsulfonyl)-L-arginyl-N-butylalanine] | above 1,500 milligrams per kilogram
7 | 1.5 | COc1cc2ccc(S(=O)(=O)N[C@@H](CCCNC(=N)N)C(=O)N(CCc3ccccc3)[C@@H](C)C(=O)O)cc2cc1OC [compound 8, N^2-(6,7-dimethoxy-2-naphthylsulfonyl)-L-arginyl-N-phenethylalanine] | 
8 | 2.0 | CCCCCN(C(=O)[C@H](CCCNC(=N)N)NS(=O)(=O)c1ccc2cc(OC)c(OC)cc2c1)[C@@H](C)C(=O)O [compound 4, N^2-(6,7-dimethoxy-2-naphthylsulfonyl)-L-arginyl-N-pentylalanine] | 

Row | Structure (SMILES) | Concentration required to prolong the coagulation time by a factor of two (thrombin) [µM] | acute toxicity values (LD50) (mice)
9 | COc1ccc2cc(S(=O)(=O)N[C@@H](CCCNC(=N)N)C(=O)N(CC3CCCCC3)[C@@H](C)C(=O)O)cc(OC)c2c1 [compound 12, N^2-(4,6-dimethoxy-2-naphthylsulfonyl)-L-arginyl-N-cyclohexylmethylalanine] | 4.5 | above 1,500 milligrams per kilogram

Source: patent US4108986A, “N^2 -Arylsulfonyl-L-argininamides and the pharmaceutically acceptable salts thereof” (Mitsubishi Chemical Industries Limited, priority 1974, dated 1978)
